Like-named read-outs stand apart in the source and are kept apart here.
Experiments:
Phytophthora infestans [1] = assay type: in vivo, Phytophthora infestans on potato plants (variety Bintje); settings: for Efficacy (Abbott formula): Trial 1, potato, spray 24 h before inoculation, notation 5 days after contamination
Phytophthora infestans [2] = assay type: in vivo, Phytophthora infestans on tomato plants (variety Rentita); settings: Trial 3, tomato, preventive 24 h, notation 6 days after contamination
Peronospora parasitica = test: In vivo test against Peronospora parasitica (crucifer downy mildew); set-up: species or system Peronospora parasitica on cabbage plants (Eminence variety); settings: cabbage, spray 24 h before contamination, grading 5 days
Method: Spirotetramat is prepared by dilution of the SC100 g/l formulation in water to obtain the desired active material concentration.
Cabbage plants (Eminence variety) in starter cups, sown on a 50/50 peat soil-pozzolana substrate and grown at 18-20° C., are treated at the cotyledon stage by spraying with the aqueous suspension described above at 500, 125 and 31 mg/l.
Plants, used as controls, are treated with an aqueous solution not containing the active material.
After 24 hours, the plants are contaminated by spraying them with an aqueous suspension of Peronospora parasitica spores (37 500 spores per ml). The spores are collected from infected plants.
The contaminated cabbage plants are incubated for 5 days at 20° C., under a humid atmosphere.
(§1) Grading is carried out 5 days after the contamination, in comparison with the control plants.

Plasmopara viticola = test: In vivo test against Plasmopara viticola (vine downy mildew); settings: from 25 to 200 g a.i./ha, spray 24 h before inoculation, grading 5 days (FIG. 4)
Method: The treatment is done by spray application in a spray cabinet at 500 L/ha with the aqueous dilutions of spirotetramat SC100 g/l formulation from 25 to 200 g a.i./ha.
The treatment is applied on six vine plants (Cabernet sauvignon variety, 9 weeks old) 24 hours and the plants are placed in a climatic chamber at 18° C. before inoculation.
The inoculation consists on spraying the sporangia suspension calibrated at 100 000 sporangia/ml, at the lower leaf face of each plant 24 h after the treatment and the plants are then placed in a climatic chamber at 18° C. day and night with saturate humidity until the symptoms assessment.
as §1

CCOC(=O)OC1=C(c2cc(C)ccc2C)C(=O)N[C@]12CC[C@@H](OC)CC2 [spirotetramat]
Efficacy (Abbott formula) (Phytophthora infestans [1]; 100 g a.i./ha): 86%
Efficacy (Abbott formula) (Phytophthora infestans [1]; 1000 g a.i./ha): 99%
Efficacy compared with standards (Phytophthora infestans [1]; Trial 2, potato, around 150 g a.i./ha, high disease pressure, preventive 24 h (FIG. 2)): equivalent to the best standard
Efficacy, disease controlled (Phytophthora infestans [2]; 100 g a.i./ha): 95%
Efficacy, disease controlled (Phytophthora infestans [2]; 200 g a.i./ha): 95%
Activity on Peronospora parasitica (Peronospora parasitica; 31 mg/l active ingredient): 100%
Activity on Peronospora parasitica (Peronospora parasitica; 125 mg/l active ingredient): 100%
Activity on Peronospora parasitica (Peronospora parasitica; 500 mg/l active ingredient): 100%
Activity against Plasmopara viticola vine downy mildew (Plasmopara viticola): 100%

From patent US20140336233A1 (priority 2011, published 2014)
